# In patent US5238921A, “Oligopeptide, angiotensin converting enzyme inhibitors, hypotensive agent, and method for treatment of hypertension” (Agency of Industrial Science and Technology, priority 1990, dated 1993):
# Non-standard residues stand in square brackets, D forms with d. Residues, ends and D or L forms follow the SMILES beside them.
# Target: T1, angiotensin converting enzyme (Oryctolagus cuniculus, UniProt P12822)
# T1 construct: the supernatant was further purified with hydroxyapatite to obtain an angiotensin converting enzyme solution; from tissue; host or cells: rabbit lung (acetone powder)
# T1 sequence (P12822 34-1310): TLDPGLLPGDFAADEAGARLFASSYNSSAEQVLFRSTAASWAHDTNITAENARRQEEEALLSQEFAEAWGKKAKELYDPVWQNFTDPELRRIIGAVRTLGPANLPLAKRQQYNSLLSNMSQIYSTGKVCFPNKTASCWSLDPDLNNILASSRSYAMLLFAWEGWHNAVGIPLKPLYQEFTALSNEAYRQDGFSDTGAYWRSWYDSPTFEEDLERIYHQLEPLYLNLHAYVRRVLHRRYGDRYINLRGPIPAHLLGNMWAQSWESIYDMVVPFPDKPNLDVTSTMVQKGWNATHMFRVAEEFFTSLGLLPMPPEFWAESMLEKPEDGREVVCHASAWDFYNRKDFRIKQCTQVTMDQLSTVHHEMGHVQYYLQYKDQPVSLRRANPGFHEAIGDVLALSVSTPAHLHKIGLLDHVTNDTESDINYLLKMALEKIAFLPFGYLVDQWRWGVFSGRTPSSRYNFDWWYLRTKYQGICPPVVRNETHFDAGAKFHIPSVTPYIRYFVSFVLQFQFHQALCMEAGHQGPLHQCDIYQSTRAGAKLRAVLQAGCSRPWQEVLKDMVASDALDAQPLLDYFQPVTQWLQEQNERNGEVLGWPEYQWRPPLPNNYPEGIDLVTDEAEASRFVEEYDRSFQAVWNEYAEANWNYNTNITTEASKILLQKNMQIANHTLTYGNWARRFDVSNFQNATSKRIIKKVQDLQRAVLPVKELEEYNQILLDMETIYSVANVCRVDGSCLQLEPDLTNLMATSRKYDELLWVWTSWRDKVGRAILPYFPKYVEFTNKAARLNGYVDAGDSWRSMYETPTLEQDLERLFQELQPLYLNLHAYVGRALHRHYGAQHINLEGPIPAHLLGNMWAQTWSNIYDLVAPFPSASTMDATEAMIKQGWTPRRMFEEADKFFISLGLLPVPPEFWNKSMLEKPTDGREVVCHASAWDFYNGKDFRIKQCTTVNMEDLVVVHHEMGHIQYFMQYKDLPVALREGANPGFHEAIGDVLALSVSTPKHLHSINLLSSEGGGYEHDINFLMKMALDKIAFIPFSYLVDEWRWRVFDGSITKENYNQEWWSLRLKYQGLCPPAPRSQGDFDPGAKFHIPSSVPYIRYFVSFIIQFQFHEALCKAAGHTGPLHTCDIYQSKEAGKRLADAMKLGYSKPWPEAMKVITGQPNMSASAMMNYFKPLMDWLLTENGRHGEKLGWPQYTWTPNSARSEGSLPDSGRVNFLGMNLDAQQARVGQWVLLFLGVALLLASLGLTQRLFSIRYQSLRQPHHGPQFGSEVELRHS
# Experiment: ACE inhibition activity (hippuroylhistidylleucine substrate, hippuric acid absorbance at 228 nm)
# Format: biochemical, rabbit
# Conditions: concentration at which the inhibition rate (E2) was found; not 50%
# Protocol: The ACE inhibition activity of the thus obtained present oligopeptides was measured as follows. Namely, first, 5 g of rabbit lung acetone powder was dissolved in 50 ml of 0.1M sodium borate buffer (pH 8.3), the solution was centrifuged under the conditions of 40,000 G for 40 minutes, and the supernatant was further purified with hydroxyapatite to obtain an angiotensin converting enzyme solution having an enzyme activity of 1 unit/mg protein.
# 0.03 ml portions of aqueous solutions containing in various concentrations any one of the present oligopeptides was placed in test tubes, 0.25 ml portions of hippuroylhistidylleucine (final concentration 5 mM; containing 300 mM NaCl) were added thereto, 0.1 ml portions of the above angiotensin converting enzyme solution were added, and reactions were carried out at 37° C. for 30 minutes.
# Plural of such an experiment were conducted and the inhibition rate was calculated by the following equation: [formula]
row,Compound,Concentration giving the inhibition rate [µM]
1,"CC(C)C[C@@H](N)C(=O)N[C@@H](CCCNC(=N)N)C(=O)N1CCC[C@H]1C(=O)O [D--Leu--L--Arg--L--Pro, D-Leu-L-Arg-L-Pro] (H-[dL]-Arg-Pro-OH)",45
2,"CC(C)C[C@H](N)C(=O)N[C@@H](Cc1ccc(O)cc1)C(=O)N1CCC[C@H]1C(=O)O [L--Leu--L--Tyr--L--Pro, L-Leu-L-Tyr-L-Pro] (H-Leu-Tyr-Pro-OH)",12
3,"CC(C)C[C@H](N)C(=O)N[C@H](C(=O)N1CCC[C@H]1C(=O)O)[C@@H](C)O [L--Leu--L--Thr--L--Pro, L-Leu-L-Thr-L-Pro] (H-Leu-Thr-Pro-OH)",3.4
4,"CC(C)C[C@H](N)C(=O)N[C@@H](CCC(=O)O)C(=O)N1CCC[C@H]1C(=O)O [L--Leu--L--Glu--L--Pro, L-Leu-L-Glu-L-Pro] (H-Leu-Glu-Pro-OH)",24
5,"CC(C)C[C@H](N)C(=O)N[C@@H](CC(=O)O)C(=O)N1CCC[C@H]1C(=O)O [L--Leu--L--Asp--L--Pro, L-Leu-L-Asp-L-Pro] (H-Leu-Asp-Pro-OH)",182
6,"CC(C)C[C@H](N)C(=O)NCC(=O)N1CCC[C@H]1C(=O)O [L--Leu--Gly--L--Pro, L-Leu-Gly-L-Pro] (H-Leu-Gly-Pro-OH)",60

# Same assay, conditions: line prints 50% inhibition rate instead of the word IC50; read-out: Concentration giving the inhibition rate (50%)
row,Compound,IC50 [µM]
1,"CC(C)C[C@H](N)C(=O)N[C@@H](Cc1c[nH]cn1)C(=O)N1CCC[C@H]1C(=O)O [L--Leu--L--His--L--Pro, L-Leu-L-His-L-Pro] (H-Leu-His-Pro-OH)",80
2,"CC(C)C[C@H](N)C(=O)N[C@@H](CCCCN)C(=O)N1CCC[C@H]1C(=O)O [L--Leu--L--Lys--L--Pro, L-Leu-L-Lys-L-Pro] (H-Leu-Lys-Pro-OH)",0.6
3,"CC(C)C[C@H](N)C(=O)N[C@@H](C)C(=O)N1CCC[C@H]1C(=O)O [L--Leu--L--Ala--L--Pro, L-Leu-L-Ala-L-Pro] (H-Leu-Ala-Pro-OH)",1.4

# Same assay, conditions: rabbit lung ACE, 5 mM hippuroylhistidylleucine, 37° C. 30 minutes; read-out: IC50
row,Compound,IC50 [µM]
1,"CC(C)C[C@H](N)C(=O)N[C@@H](C)C(=O)N[C@@H](C)C(=O)O [L--Leu--L--Ala--L--Ala, L-Leu-L-Ala-L-Ala] (H-Leu-Ala-Ala-OH)",13
2,"CC(C)C[C@H](N)C(=O)N[C@@H](CCC(N)=O)C(=O)N1CCC[C@H]1C(=O)O [L--Leu--L--Gln--L-- Pro, L-Leu-L-Gln-L-Pro] (H-Leu-Gln-Pro-OH)",1.9
3,"CC(C)[C@H](N)C(=O)N[C@@H](C)C(=O)N[C@@H](Cc1ccc(O)cc1)C(=O)O [L--Val--L--Ala--L--Tyr, L-Val-L-Ala-L-Tyr] (H-Val-Ala-Tyr-OH)",16
4,"CC(C)C[C@H](N)C(=O)N[C@@H](CC(N)=O)C(=O)N1CCC[C@H]1C(=O)O [L--Leu--L--Asn--L--Pro, L-Leu-L-Asn-L-Pro] (H-Leu-Asn-Pro-OH)",35
5,"CC(C)C[C@H](NC(=O)[C@@H](N)Cc1ccccc1)C(=O)N1CCC[C@H]1C(=O)O [L--Phe--L--Leu--L--Pro, L-Phe-L-Leu-L-Pro] (H-Phe-Leu-Pro-OH)",210
6,"CC[C@H](C)[C@H](N)C(=O)N[C@@H](CCCNC(=N)N)C(=O)N[C@@H](C)C(=O)N[C@@H](CCC(N)=O)C(=O)N[C@@H](CCC(N)=O)C(=O)O [L--Ile--Arg--L--Ala--L--Gln--L--Gln, L-Ile-L-Arg-L-Ala-L-Gln-L-Gln] (H-IRAQQ-OH)",160
7,"CC(C)[C@H](N)C(=O)N[C@@H](C)C(=O)N[C@@H](C)C(=O)O [L--Val--L--Ala--L--Ala, L-Val-L-Ala-L-Ala] (H-Val-Ala-Ala-OH)",13
8,"CC(C)[C@H](N)C(=O)N[C@@H](CO)C(=O)N1CCC[C@H]1C(=O)O [L--Val--L--Ser--Ser--L--Pro, L-Val-L-Ser-L-Pro] (H-Val-Ser-Pro-OH; N-terminus and C-terminus assumed)",10
9,"CC(C)C[C@H](N)C(=O)N[C@@H](CCC(N)=O)C(=O)N[C@@H](CCC(N)=O)C(=O)O [L--Leu--L--Gln--L--Gln, L-Leu-L-Gln-L-Gln] (H-Leu-Gln-Gln-OH)",100
10,"CC(C)C[C@H](NC(=O)[C@@H](N)CC(C)C)C(=O)N1CCC[C@H]1C(=O)O [L--Leu--L--Leu--L--Pro, L-Leu-L-Leu-L-Pro] (H-Leu-Leu-Pro-OH)",57
11,"CC[C@H](C)[C@H](N)C(=O)N[C@@H](CCCNC(=N)N)C(=O)N[C@@H](C)C(=O)O [L--Ile--L--Arg--L--Ala, L-Ile-L-Arg-L-Ala] (H-Ile-Arg-Ala-OH)",6.4
12,"CC(C)C[C@H](N)C(=O)N[C@@H](CO)C(=O)N1CCC[C@H]1C(=O)O [L--Leu--L--Ser--L--Pro, L-Leu-L-Ser-L-Pro] (H-Leu-Ser-Pro-OH)",1.7
13,"N[C@@H](Cc1ccccc1)C(=O)N[C@@H](Cc1ccc(O)cc1)C(=O)O [L--Phe--L--Tyr, L-Phe-L-Tyr] (H-Phe-Tyr-OH)",25
14,"CC(C)C[C@H](N)C(=O)N[C@@H](CCCN=C(N)N)C(=O)N1CCC[C@H]1C(=O)O [L--Leu--L--Arg--L--Pro, L-Leu-L-Arg-L-Pro] (H-Leu-Arg-Pro-OH)",0.27

# Test system: spontaneous hypertensive rats (SHR)
# Experiment: Hypotensive activity in spontaneous hypertensive rats (Tail-Cuff method)
# Format: in vivo, rat
# Conditions: 120 mg/kg intraperitoneally, maximum blood pressure before minus after administration ± S.E., p < 0.01 against saline control
# Protocol: 10-week old spontaneous hypertensive rats (SHR) (produced BY Nihon Rat Co., Ltd.,.male., weight 240 to 280 g, 4 to 6 animals per 1 group) were used as test animals. L-Leu-L-Arg-L-Pro obtained as in Example 12 was dissolved in physiological saline and 120 mg in terms of the effective ingredient of the solution was intraperitoneally administered per kg of animal. As control physiological saline was intraperitoneally administered. Blood pressure was measured before the administration and at regular intervals of time after the administration by the Tail-Cuff method using a bloodless sphygmomanometer for rats and mice TK-350 (produced by Unicom Co., Ltd.)
# The results were shown in Table 2 by (Maximum blood pressure value before the administration-Maximum blood pressure value after the administration) ± S.E.
row,Compound,Lowering of blood pressure (mm Hg) 5 hours later [mm Hg]
1,"CC(C)C[C@H](N)C(=O)N[C@@H](CCCNC(=N)N)C(=O)N1CCC[C@H]1C(=O)O [L--Leu--L--Arg--L--Pro, L-Leu-L-Arg-L-Pro] (H-Leu-Arg-Pro-OH)",14 ± 5
